{"source": "patent US12138267B2", "about": "“Methods of treating respiratory depression modulated by a non-opioid agent” (Enalare Therapeutics Inc., priority 2021, dated 2024)", "key": {"[1]": {"tested_on": "healthy participants", "conditions": "propofol during placebo infusion"}, "[2]": {"experiment": "clinical", "conditions": "for AUC(0-t): both, human, plasma, intravenous, propofol Mean AUClast", "protocol": "A study is conducted for Compound A. The study is a 3-period, randomized, placebo-controlled, double-blind, crossover study in healthy subjects. The primary objective of the study was to determine the safety and tolerability of Compound A in healthy participants after low and high doses of Compound A under hypoxic and hypercapnic conditions in conjunction with low and high doses of propofol. Another primary objective of the study was to determine the ventilatory response of low and high doses of Compound A under hypoxic and hypercapnic conditions in conjunction with low and high doses of propofol. A secondary objective of the study was to determine the cardiovascular response of low and high doses of Compound A during hypoxic and hypercapnic conditions in conjunction with low and high doses of propofol. Another secondary objective of the study was to evaluate the ventilatory response after administration of Compound A and propofol, under different ventilatory conditions: hypoxia and hyperoxic exposure at normocapnia followed by the same sequence at hypercapnia. The study was conducted in conformance with Good Clinical Practice. The study was a randomized, double-blinded, placebo-controlled, three-way crossover study to assess the safety, tolerability, respiratory PD, and PK of Compound A in healthy male and female participants. Subjects were initially screened up to 6 weeks prior to randomization. Following successful initial medical screening, they were scheduled for the study and receive a randomization number. Subjects underwent 3 separate treatment periods. In each of these periods, low or high doses of Compound A or placebo were continuously perfused throughout for a period of 270 minutes. During each period, subjects received different intravenous propofol dosages or placebo in set order: placebo—propofol low dose—propofol high dose. Each treatment session of propofol or placebo is […]. During each propofol treatment session, different ventilatory conditions are applied, hypoxia and hypercapnia (FIG. 1). […] Each assessment period (i.e., “run”) consists of a hypoxia/hyperoxic exposure at normocapnia followed by one the same sequence at hypercapnia. […] The participants received the following treatments in random order during the dosing periods: • Placebo+placebo/propofol low/propofol high/ • Compound A low+placebo/propofol low/propofol high • Compound A high+placebo/propofol low/propofol high Subjects were admitted to study site on Day −1 for pre-dose activities and eligibility was reassessed and stayed overnight. On each dosing day (Day 1), subjects were transferred to a special unit at study site in the morning (or early afternoon) after a minimum 8 hour overnight fasting. After placement of the respiratory and cardiovascular monitoring/assessment devices including an arterial line, subjects assumed the semi-recumbent position and sufficient time was allowed for subjects to resume a normal breathing pattern. After completion of baseline evaluations, all measurements were performed as per the schedule of assessments. Upon completion of all measurements on the dosing day, subjects were monitored overnight and assessed the next morning (at least 12 hours post study treatments) prior to discharge (Day 2). Subjects were not immediately discharged in cases where prolonged care is required (e.g., due to adverse event, residual sedation etc.) and were treated as necessary. Duration of Treatment: Participation was approximately 10 weeks divided as follows: • Screening: Up to 42 days before first dosing • Treatment phase of approximately 21 days, including three treatment and study assessment periods of 3 days each with approximately 7 days (minimum of 3) between dosing days • Follow up 7 days after last dosing Healthy adult subjects were selected for the study."}, "[3]": {"conditions": "during infusion with Compound A high dose"}, "[4]": {"conditions": "during infusion with Compound A low dose"}}, "data": [{"smiles": "CC(C)c1cccc(C(C)C)c1O", "note": "[propofol]", "values": [{"measurement": "Effect of propofol on hypoxic sensitivity", "setting": "[1]", "result": "decreased hypoxic sensitivity"}, {"measurement": "AUC(0-t)", "setting": "[2]; [3]", "result": "6150 ± 1170", "unit": "ng·h/mL"}, {"measurement": "AUC(0-t)", "setting": "[2]; [4]", "result": "5750 ± 1180", "unit": "ng·h/mL"}, {"measurement": "AUC(0-t)", "setting": "[2]; during infusion with placebo", "result": "4600 ± 548", "unit": "ng·h/mL"}, {"measurement": "propofol peak plasma concentration, mean (±SD)", "setting": "[2]; [3]", "result": "2620.0 ± 1093.86", "unit": "ng/mL"}, {"measurement": "propofol peak plasma concentration, mean (±SD)", "setting": "[2]; [4]", "result": "2534.2 ± 1192.34", "unit": "ng/mL"}, {"measurement": "propofol peak plasma concentration, mean (±SD)", "setting": "[2]; during infusion with placebo", "result": "1880.8 ± 265.45", "unit": "ng/mL"}, {"measurement": "Propofol plasma concentrations during infusion with Compound A compared to placebo infusion", "setting": "[2]; in vivo", "result": "tended to be higher during infusion with Compound A"}, {"measurement": "Propofol plasma concentrations versus targeted concentration", "setting": "[2]; propofol high dose infusion, target 1200 ng/mL", "result": "exceeding those targeted"}, {"measurement": "propofol Geometric mean Cav200-270 min", "setting": "[2]; propofol high dose interval, range across treatments", "result": "1525.12 to 1862.45", "unit": "ng/mL"}, {"measurement": "propofol Geometric mean Cav115-185 min", "setting": "[2]; propofol low dose interval, range across treatments", "result": "452.62 to 559.80", "unit": "ng/mL"}]}]}
